The target in the experiment is IDO1 (Homo sapiens, UniProt P14902). Put plainly: IDO1 Cellular Assay in HeLa Cells Stimulated with IFNγ. The note with it: about 48 hours, read-out: Hela IC50. The format is cell-based. As for the experimental part:
Biological Assays IDO1 Cellular Assay in HeLa Cells Stimulated with IFNγ
HeLa cells were cultured in complete HeLa culture medium (90% EMEM, 10% heat-inactivated fetal bovine serum) and expanded to about 1×10^9 cells. The cells were then collected and frozen down at 1×10^7 cells/vial in 1 mL frozen medium (90% complete HeLa culture medium, 10% DMSO).
Compounds to be tested were serially diluted in ten 3-fold steps in DMSO starting from 10 mM DMSO stocks in Echo low volume plate(s).
Frozen HeLa cells were thawed and transferred into HeLa assay medium (99% complete HeLa culture medium, 1% Pen/Strep) with 20 mL medium/vial of cells. The cells were spun down at 250 g in a table top centrifuge for 5 min and suspended in same volume of HeLa assay medium. The cells were then counted and adjusted to a density of 2×10^5 cells/mL in HeLa assay medium. Sterile L-tryptophan were added to the cells with final concentration of 300 uM L-tryptophan. A small aliquot (2 mL/plate) of HeLa cells were set aside and were not treated with IFNγ, to serve as the Max-E control.
HeLa cells with and without IFNγ were dispensed to the respective wells of 384-well assay plates containing the compounds. The plates were incubated for about 48 hours at a 37° C., 5% CO2 incubator. Afterwards, 12 μL of 0.5 M methyl isonipecotate in dimethyl sulfoxide were added into each well and the plates were sealed and incubated at 37° C. without CO2 overnight. The plates were centrifuged for 1 min at 200×g. The resulting fluorescence was measured in a Spectramax plate reader (Molecular Devices) with a 400 nm excitation filter and a 510 nm emission filter.
Potencies were calculated by […] least squares fit to the four parameter logistic IC50 equation.
Chain of IDO1 (P14902 whole entry): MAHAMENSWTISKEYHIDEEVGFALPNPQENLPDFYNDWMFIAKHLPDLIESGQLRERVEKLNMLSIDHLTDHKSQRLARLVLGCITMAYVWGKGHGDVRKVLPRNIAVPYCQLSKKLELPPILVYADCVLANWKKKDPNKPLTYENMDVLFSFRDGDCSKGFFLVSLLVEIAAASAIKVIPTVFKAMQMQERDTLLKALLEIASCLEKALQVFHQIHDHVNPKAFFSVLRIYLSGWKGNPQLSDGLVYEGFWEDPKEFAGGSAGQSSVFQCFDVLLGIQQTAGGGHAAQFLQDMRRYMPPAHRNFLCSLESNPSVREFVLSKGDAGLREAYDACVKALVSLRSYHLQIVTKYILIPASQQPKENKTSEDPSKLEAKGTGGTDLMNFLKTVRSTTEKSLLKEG
`CC(NC(=O)c1ccc(Cl)cc1)c1ccc2c(n1)OCCN2C(=O)c1ccccc1` (racemic) [Example 253, N-(1-(1-benzoyl-2,3-dihydro-1H-pyrido[2,3-b][1,4]oxazin-6-yl)ethyl)-4-chlorobenzamide]: the IC50 is 3.5 nM.

`CC(C)CC(=O)N1CCCc2cc(C(C)NC(=O)c3ccc(Cl)cc3)ccc21` (single isomer, unassigned) [Example 26, 4-chloro-N-{1-[1-(3-methylbutanoyl)-1,2,3,4-tetrahydroquinolin-6-yl]ethyl}benzamide]: the 50% inhibitory concentration (IC50) worked out at 4.3 nM. The same measure for `CC(C)CC(=O)N1CCCc2cc([C@H](C)NC(=O)c3ccc(Cl)cc3)ccc21` (single isomer, unassigned) [Example 27]: 42.2 nM; for `C[C@@H](NC(=O)c1ccc(F)cc1)c1ccc2c(c1)CCCN2C(=O)C1(F)CC1` (single isomer, unassigned) [Example 31]: 1230 nM; for `C[C@H](NC(=O)c1ccc(F)cc1)c1ccc2c(c1)CCCN2C(=O)C1(F)CC1` (single isomer, unassigned) [Example 32]: 27.5 nM. To `C[C@@H](NC(=O)c1ccc(F)cn1)c1ccc2c(c1)CCCN2C(=O)C1(F)CC1` (single isomer, unassigned) [Example 33] belongs 729 nM; to `C[C@H](NC(=O)c1ccc(F)cn1)c1ccc2c(c1)CCCN2C(=O)C1(F)CC1` (single isomer, unassigned) [Example 34], 800 nM; to `C[C@H](C(=O)Nc1ccc(F)cn1)c1ccc2c(c1)CCCN2C(=O)c1cccc(Cl)c1` (single isomer, unassigned) [Example 54], 18 nM.

With `C[C@H](C(=O)Nc1ccc(Cl)cc1)c1ccc2c(c1)CCCN2C(=O)c1cccc(Cl)c1` (single isomer, unassigned) [Example 56], the IC50 stood at 3.1 nM. To `C[C@@H](C(=O)Nc1ccc(F)cn1)c1ccc2c(c1)CCCN2C(=O)C1CC1` (single isomer, unassigned) [Example 60] belongs 124 nM; to `C[C@H](C(=O)Nc1ccc(F)cn1)c1ccc2c(c1)CCCN2C(=O)C1CC1` (single isomer, unassigned) [Example 61], 9.4 nM. Regarding `C[C@@H](C(=O)Nc1ccc(F)cn1)c1ccc2c(c1)CCCN2C(=O)C1(F)CC1` (single isomer, unassigned) [Example 62], the IC50 came out at 524 nM. In the case of `C[C@H](C(=O)Nc1ccc(F)cn1)c1ccc2c(c1)CCCN2C(=O)C1(F)CC1` (single isomer, unassigned) [Example 63], the IC50 was 16.5 nM. To `CC(C)[C@@H](O)C(=O)N1CCCc2cc([C@H](C)C(=O)Nc3ccc(F)cc3)ccc21` (single isomer, unassigned) [Example 72] belongs 43.8 nM; to `CC(C)[C@H](O)C(=O)N1CCCc2cc([C@H](C)C(=O)Nc3ccc(F)cc3)ccc21` (single isomer, unassigned) [Example 73], 381 nM.

With `CO[C@@H](C)C(=O)N1CCCc2cc([C@H](C)C(=O)Nc3ccc(F)cc3)ccc21` (single isomer, unassigned) [Example 75], the IC50 came out at 61.8 nM. The same measure for `COC(C)C(=O)N1CCCc2cc([C@H](C)C(=O)Nc3ccc(F)cc3)ccc21` (single isomer, unassigned) [Example 76]: 25.9 nM; for `C[C@H](C(=O)Nc1ccc(F)cc1)c1ccc2c(c1)CCCN2C(=O)[C@@H]1CCCCO1` (single isomer, unassigned) [Example 88]: 3.1 nM. To `CC(NC(=O)c1ccc(F)cc1)c1ccc2c(c1)CCCN2C(CO)c1cccc(Cl)c1` (single isomer, unassigned) [Example 94] belongs 236 nM; to `CC(NC(=O)c1ccc(F)cc1)c1ccc2c(c1)CCCN2C(CO)c1cccc(Cl)c1` (single isomer, unassigned) [Example 95], 545 nM; to `CC(NC(=O)c1ccc(Cl)cc1)c1ccc2c(n1)CCCN2C(=O)C1CC1` (single isomer, unassigned) [Example 126, 4-chloro-N-{1-[5-(cyclopropanecarbonyl)-5,6,7,8-tetrahydro-1,5-naphthyridin-2-yl]ethyl}benzamide], 617 nM.

`C[C@@H](NC(=O)c1ccc(F)cc1)c1ccc2c(n1)CCCN2C(=O)[C@H]1CC1(F)F` (single isomer, unassigned) [Example 134]: the IC50 came to 24 nM. The same measure for `C[C@@H](NC(=O)c1ccc(F)cc1)c1ccc2c(n1)CCCN2C(=O)[C@@H]1CC1(F)F` (single isomer, unassigned) [Example 135]: 414 nM. To `COC(C(=O)Nc1ccc(F)cn1)c1ccc2c(c1)CCCN2C(=O)C1CC1` (single isomer, unassigned) [Example 156, 2-(1-(cyclopropanecarbonyl)-1,2,3,4-tetrahydroquinolin-6-yl)-N-(5-fluoropyridin-2-yl)-2-methoxyacetamide] belongs 794 nM; to `COC(C(=O)Nc1ccc(F)cn1)c1ccc2c(c1)CCCN2C(=O)C1CC1` (single isomer, unassigned) [Example 157, 2-(1-(cyclopropanecarbonyl)-1,2,3,4-tetrahydroquinolin-6-yl)-N-(5-fluoropyridin-2-yl)-2-methoxyacetamide], 154 nM. To `CC(C(=O)Nc1ccc(F)cc1)c1ccc2c(n1)CCCN2C(=O)C1CCCCO1` (single isomer, unassigned) [Example 159, N-(4-fluorophenyl)-2-[5-(oxane-2-carbonyl)-5,6,7,8-tetrahydro-1,5-naphthyridin-2-yl]propanamide] belongs 1.5 nM. Turning to `CC(C(=O)Nc1ccc(F)cc1)c1ccc2c(n1)CCCN2C(=O)C1CCCCO1` (single isomer, unassigned) [Example 160, N-(4-fluorophenyl)-2-[5-(oxane-2-carbonyl)-5,6,7,8-tetrahydro-1,5-naphthyridin-2-yl]propanamide], the IC50 is 8.2 nM. Take `CC(C(=O)Nc1ccc(F)cc1)c1ccc2c(n1)CCCN2C(=O)C1CCCCO1` (single isomer, unassigned) [Example 161, N-(4-fluorophenyl)-2-[5-(oxane-2-carbonyl)-5,6,7,8-tetrahydro-1,5-naphthyridin-2-yl]propanamide]: the IC50 stood at 5.6 nM.

Take `CC(C(=O)Nc1ccc(F)cc1)c1ccc2c(n1)CCCN2C(=O)[C@@H]1CCCO1` (single isomer, unassigned) [Example 163]: the IC50 was 21.8 nM. To `CC(C(=O)Nc1ccc(F)cc1)c1ccc2c(n1)CCCN2C(=O)[C@@H]1CCCO1` (single isomer, unassigned) [Example 164] belongs 1.1 nM; to `O=C(C1CCCCO1)N1CCCc2nc(C3(C(=O)Nc4ccc(F)cc4)CCC3)ccc21` (single isomer, unassigned) [Example 178, N-(4-fluorophenyl)-1-[5-(oxane-2-carbonyl)-5,6,7,8-tetrahydro-1,5-naphthyridin-2-yl]cyclobutane-1-carboxamide], 1.6 nM; to `O=C(C1CCCCO1)N1CCCc2nc(C3(C(=O)Nc4ccc(F)cc4)CCC3)ccc21` (single isomer, unassigned) [Example 179, N-(4-fluorophenyl)-1-[5-(oxane-2-carbonyl)-5,6,7,8-tetrahydro-1,5-naphthyridin-2-yl]cyclobutane-1-carboxamide], 1.8 nM. The same measure for `CC(NC(=O)c1ccc(F)cc1)c1ccc2c(n1)C(F)(F)CCN2C(=O)C1CC1` (single isomer, unassigned) [Example 194, N-(1-(5-(cyclopropanecarbonyl)-8,8-difluoro-5,6,7,8-tetrahydro-1,5-naphthyridin-2-yl)ethyl)-4-fluorobenzamide]: 2650 nM; for `CC(NC(=O)c1ccc(F)cc1)c1ccc2c(n1)C(F)(F)CCN2C(=O)C1CC1` (single isomer, unassigned) [Example 195, N-(1-(5-(cyclopropanecarbonyl)-8,8-difluoro-5,6,7,8-tetrahydro-1,5-naphthyridin-2-yl)ethyl)-4-fluorobenzamide]: 9540 nM; for `CC(NC(=O)c1ccc(F)cc1)c1ccc2c(n1)C(O)CCN2C(=O)C1CC1` (single isomer, unassigned) [Example 197, N-(1-(5-(cyclopropanecarbonyl)-8-hydroxy-5,6,7,8-tetrahydro-1,5-naphthyridin-2-yl)ethyl)-4-fluorobenzamide]: 290 nM.

In the case of `CC(NC(=O)c1ccc(F)cc1)c1ccc2c(n1)C(O)CCN2C(=O)C1CC1` (single isomer, unassigned) [Example 198, N-(1-(5-(cyclopropanecarbonyl)-8-hydroxy-5,6,7,8-tetrahydro-1,5-naphthyridin-2-yl)ethyl)-4-fluorobenzamide], the IC50 worked out at 393 nM.

As to `CC(NC(=O)c1ccc(F)cc1)c1ccc2c(n1)C(F)CCN2C(=O)C1CC1` (single isomer, unassigned) [Example 201, N-(1-(5-(cyclopropanecarbonyl)-8-fluoro-5,6,7,8-tetrahydro-1,5-naphthyridin-2-yl)ethyl)-4-fluorobenzamide], the IC50 amounted to 186 nM.

By IC50 is commonly meant the point on the concentration scale where inhibition reaches its midpoint.
